These results are taken from patent CN102488699A, “芍药苷在制备防治肺纤维化药物中的应用” (China Pharmaceutical University, priority 2011, dated 2012).

Structures are written as SMILES.

Test [1] deals with pulmonary fibrosis mice [肺纤维化小鼠]. Kind of test: Effect on survival rate of mice with bleomycin-induced pulmonary fibrosis. The following applies: intragastric, once daily from day 1, model group 50.0%; for survival rate: day 21 after bleomycin (5 mg/kg intratracheal). In kind it is in vivo, mouse.
The test system of test [2] is lung tissue of pulmonary fibrosis mice [肺纤维化小鼠肺组织]. In words: Effect on lung tissue lesions of pulmonary fibrosis mice, HE staining (Fig. 1). In kind it is in vivo, mouse. The following applies: intragastric, once daily, day 21, vs model group.
Test [3] shares this test system. Kind of test: Effect on collagen deposition in lung tissue of pulmonary fibrosis mice, Masson staining (Fig. 2). In kind it is in vivo, mouse. The following applies: intragastric, once daily, day 21, vs model group.
The test system of test [4] is bleomycin model mice [博来霉素模型小鼠]. Kind of test: Effect on degree of alveolitis and pulmonary fibrosis in bleomycin model mice (Table 1). In kind it is in vivo, mouse. Particulars: intragastric, once daily, day 21, n=3.
The test system of test [5] is hydroxyproline in lung tissue of pulmonary fibrosis mice [肺纤维化小鼠肺组织中羟脯氨酸]. Kind of test: Effect on hydroxyproline content in lung tissue of pulmonary fibrosis mice (Fig. 3). The test is classed as in vivo, mouse.
The subject of test [6] is smooth muscle actin (α-SMA) [平滑肌肌动蛋白(α-SMA)]. Kind of test: Effect on α-SMA expression in lung tissue of pulmonary fibrosis mice, Western blot (Fig. 4). The test is classed as in vivo, mouse. Particulars: intragastric, once daily, day 21.
Test [7] relates to TGF-β1 protein [TGF-β1蛋白]. In words: Effect on TGF-β1 protein expression in lung tissue of pulmonary fibrosis mice, Western blot (Fig. 5). In kind it is in vivo, mouse. The following applies: intragastric, once daily, day 21.
For test [8], the system named is lipopolysaccharide-induced acute lung injury in mice [脂多糖引起的小鼠急性肺损伤]. Particulars: intraperitoneal injection, Inflamm Res 2011,60(10):981-990; cited from earlier work.

Consider `CC(=O)OCC(=O)[C@@]1(O)CC[C@H]2[C@@H]3CCC4=CC(=O)C=C[C@]4(C)[C@H]3C(=O)C[C@@]21C` [泼尼松, 醋酸泼尼松, reference compound], for which, in test [1] (6 mg/kg, day 21 after bleomycin), the “survival rate (in words)” value is reported as “与模型组相近”. Besides, in test [2] (6 mg/kg), the “degree of alveolitis, HE staining” value is “肺泡炎程度明显减轻” and the “lung tissue lesions, HE staining” value is given as “肺组织结构较完整清晰,少量炎性细胞浸润及成纤维细胞增生,病变程度较模型组轻”. In addition, the “collagen deposition and pulmonary fibrosis, Masson staining” value in test [3] (6 mg/kg) was “肺组织结构较完整清晰,肺泡间隔轻度增厚,胶原沉积减少,肺纤维化程度明显减轻”. In test [4] (6 mg/kg), the alveolar inflammation result is on record as “抑制肺泡炎症” and the “degree of pulmonary fibrosis” value was “显著减低肺纤维化程度”. The inhibition at 6 mg/kg in test [5] (Mus musculus, po, 504 h, read-out: inhibition rate of hydroxyproline content in lung tissue) came to 31.2%. Further, the “α-SMA content in lung tissue” value in test [6] (6 mg/kg) is “显著降低”. For the same molecule, in test [7] (6 mg/kg), the “TGF-β1 expression in lung tissue” value was “显著降低”.

In test [1] (50 mg/kg), `C[C@@]12C[C@@]3(O)O[C@@H](O1)[C@]1(COC(=O)c4ccccc4)[C@H]3C[C@@]12O[C@@H]1O[C@H](CO)[C@@H](O)[C@H](O)[C@H]1O` [芍药苷, Paeoniflorin] returned a survival rate of 87.5%. This molecule also gave a survival rate in test [1] (100 mg/kg) of 75.0%. Besides, in test [2] (100 mg/kg), the “degree of alveolitis, HE staining” value is reported as “肺泡炎程度明显减轻” and the “lung tissue lesions, HE staining” value is “肺组织结构较完整清晰,少量炎性细胞浸润及成纤维细胞增生,病变程度较模型组轻”. The “collagen deposition and pulmonary fibrosis, Masson staining” value in test [3] (100 mg/kg) was “肺组织结构较完整清晰,肺泡间隔轻度增厚,胶原沉积减少,肺纤维化程度明显减轻”. In test [4] (100 mg/kg), the alveolar inflammation result is “抑制肺泡炎症” and the “degree of pulmonary fibrosis” value was “显著减低肺纤维化程度”. Further, the “inhibition of collagen synthesis (in words)” value in test [5] (50, 100 mg/kg, intragastric, once daily, day 21) was “剂量依赖性抑制胶原的合成”. Moreover, the inhibition at 50 mg/kg in test [5] (Mus musculus, po, 504 h, 50 mg/kg, intragastric, once daily, day 21, read-out: inhibition rate of hydroxyproline content in lung tissue) was 20.6%. Also, the inhibition at 100 mg/kg in test [5] (Mus musculus, po, 504 h, 100 mg/kg, intragastric, once daily, day 21, read-out: inhibition rate of hydroxyproline content in lung tissue) amounted to 31.4%. In test [6] (100 mg/kg), the “α-SMA content in lung tissue” value was “显著降低”. Further, the “TGF-β1 expression in lung tissue” value in test [7] (100 mg/kg) is recorded as “显著降低”. In addition, in test [8], the “protective effect on acute lung injury” value is “具有明显的保护作用”.

By inhibition is commonly meant the percentage by which the read-out fell short of the control.
